The values that follow come from patent US10590105B2, “1,3-dihydroxy-phenyl derivatives useful as immunomodulators” (BRISTOL-MYERS SQUIBB COMPANY, priority 2016, dated 2020).

Chain of PD-1/PD-L1 interaction (PD-1-Ig / PD-L1-His) (Q9NZQ7 other isoform, or with tags, fused parts or gaps): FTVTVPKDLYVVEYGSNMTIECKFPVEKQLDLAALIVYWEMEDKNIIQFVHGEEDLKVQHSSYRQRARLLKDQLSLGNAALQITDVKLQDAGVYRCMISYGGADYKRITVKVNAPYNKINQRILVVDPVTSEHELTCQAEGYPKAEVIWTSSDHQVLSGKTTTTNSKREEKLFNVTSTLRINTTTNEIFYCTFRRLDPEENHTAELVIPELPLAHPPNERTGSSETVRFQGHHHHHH

In this assay the target is PD-1/PD-L1 interaction (PD-1-Ig / PD-L1-His) (Homo sapiens (Human), UniProt Q9NZQ7). The experiment in a line: PD-1/PD-L1 Homogenous Time-Resolved Fluorescence (HTRF) binding assay. The following applies: PD-1/PD-L1 HTRF binding assay; value given as range class; read-out: Range or IC50. From the text:
The ability of the compounds of formula (I) to bind to PD-L1 was investigated using a PD-1/PD-L1 Homogenous Time-Resolved Fluorescence (HTRF) binding assay.
Homogenous Time-Resolved Fluorescence (HTRF) Binding Assay.
The interaction of PD-1 and PD-L1 can be assessed using soluble, purified preparations of the extracellular domains of the two proteins. The PD-1 and PD-L1 protein extracellular domains were expressed as fusion proteins with detection tags, for PD-1, the tag was the Fc portion of Immunoglobulin (PD-1-Ig) and for PD-L1 it was the 6 histidine motif (PD-L1-His). All binding studies were performed in an HTRF assay buffer consisting of dPBS supplemented with 0.1% […] bovine serum albumin and 0.05% (v/v) Tween-20. For the h/PD-L1-His binding assay, inhibitors were pre-incubated with PD-L1-His (10 nM final) for 15 m in 4 μl of assay buffer, followed by addition of PD-1-Ig (20 nM final) in 1 μl of assay buffer and further incubation for 15 m. HTRF detection was achieved using europium crypate-labeled anti-Ig (1 nM final) and allophycocyanin (APC) labeled anti-His (20 nM final). Antibodies were diluted in HTRF detection buffer and 5 μl was dispensed on top of the binding reaction. The reaction mixture was allowed to equilibrate for 30 minutes and the resulting signal (665 nm/620 nm ratio) was obtained using an EnVision fluorometer. Additional binding assays were established between the human proteins PD-1-Ig/PD-L2-His (20 & 5 nM, respectively) and CD80-His/PD-L1-Ig (100 & 10 nM, respectively).
Recombinant Proteins. Human PD-1 (25-167) with a C-terminal human Fc domain of immunoglobulin G (Ig) epitope tag [hPD-1 (25-167)-3S-IG] and human PD-L1 (18-239) with a C-terminal His epitope tag [hPD-L1(18-239)-TVMV-His] were expressed in HEK293T cells and purified sequentially by ProteinA affinity chromatography and size exclusion chromatography. Human PD-L2-His and CD80-His was obtained through commercial sources.
Ranges are as follows: A=0.001 to 0.010 micromolar; B=0.011 to 0.150 micromolar; C=0.151 to 10 micromolar.
(TR-FRET usually uses a lanthanide donor and a delayed reading to cut background.)
Regarding `Cc1c(COc2cc(OCc3cncc(C#N)c3)c(CN[C@](C)(CO)C(=O)O)cc2Cl)cccc1-c1ccc2ncsc2c1` [Example 1011, (R)-2-((4-((3-(benzo[d]thiazol-6-yl)-2-methylbenzyl)oxy)-5-chloro-2-((5-cyanopyridin-3-yl)methoxy)benzyl)amino)-3-hydroxy-2-methylpropanoic acid], the IC50 lay within 11 to 150 nM. Under `Cc1c(COc2cc(OCc3cncc(C#N)c3)c(CN[C@](C)(CO)C(=O)O)cc2Cl)cccc1-c1ccc2ncoc2c1` [Example 1017, (R)-2-((4-((3-(benzo[d]oxazol-6-yl)-2-methylbenzyl)oxy)-5-chloro-2-((5-cyanopyridin-3-yl)methoxy)benzyl)amino)-3-hydroxy-2-methylpropanoic acid] stands 11 to 150 nM; under “2-((5-chloro-2-((5-cyanopyridin-3-yl)methoxy)-4-((3-(1-(2-(dimethylamino)ethyl)-1H-benzo[d]imidazol-6-yl)-2-methylbenzyl)oxy)benzyl)amino)-2-methylpropanoic acid and 2-((5-chloro-2-((5-cyanopyridin-3-yl)methoxy)-4-((3-(1-(2-(dimethylamino)ethyl)-1H-benzo[d]imidazol-5-yl)-2-methylbenzyl)oxy)benzyl)amino)-2-methylpropanoic acid [Example 1026]”, 151 to 10000 nM; under `Cc1c(COc2cc(OCc3cncc(C#N)c3)c(CN3CCCC[C@H]3C(=O)O)cc2Cl)cncc1-c1cccc(OCCCN2CC[C@@H](O)C2)c1C` [Example 2005, (S)-1-(5-chloro-2-((5-cyanopyridin-3-yl)methoxy)-4-((5-(3-(3-((R)-3-hydroxypyrrolidin-1-yl)propoxy)-2-methylphenyl)-4-methylpyridin-3-yl)methoxy)benzyl)piperidine-2-carboxylic acid], 1 to 10 nM.

Take `Cc1c(COc2cc(OCc3cncc(C#N)c3)c(CN[C@](C)(CO)C(=O)O)cc2Cl)cccc1-c1ccc2ocnc2c1` [Example 1012, (R)-2-((4-((3-(benzo[d]oxazol-5-yl)-2-methylbenzyl)oxy)-5-chloro-2-((5-cyanopyridin-3-yl)methoxy)benzyl)amino)-3-hydroxy-2-methylpropanoic acid]: the IC50 was in the range of 1 to 10 nM.

For the molecule `Cc1c(COc2cc(OCc3cncc(C#N)c3)c(CN[C@@H](CO)C(=O)O)cc2Cl)cccc1-c1cccn(CCCN2CC[C@@H](O)C2)c1=O` [Example 1040, (S)-2-((5-chloro-2-((5-cyanopyridin-3-yl)methoxy)-4-((3-(1-(3-((R)-3-hydroxypyrrolidin-1-yl)propyl)-2-oxo-1,2-dihydropyridin-3-yl)-2-methylbenzyl)oxy)benzyl)amino)-3-hydroxypropanoic acid], the IC50 lay in the range of 151 to 10000 nM. The same measure for `Cc1c(COc2cc(OCc3cncc(C#N)c3)c(CN3CCCC[C@@H]3C(=O)O)cc2Cl)cccc1-c1ccc2nccnc2c1` [Example 1033, (R)-1-(5-chloro-2-((5-cyanopyridin-3-yl)methoxy)-4-((2-methyl-3-(quinoxalin-6-yl)benzyl)oxy)benzyl)piperidine-2-carboxylic acid]: 11 to 150 nM; for `Cc1c(COc2cc(OCc3cncc(C#N)c3)c(CNC(C)(C)C(=O)O)cc2Cl)cccc1-c1ccc2ncoc2c1` [Example 1016, 2-((4-((3-(benzo[d]oxazol-6-yl)-2-methylbenzyl)oxy)-5-chloro-2-((5-cyanopyridin-3-yl)methoxy)benzyl)amino)-2-methylpropanoic acid]: 1 to 10 nM; for `Cc1c(COc2cc(OCc3cncc(C#N)c3)c(CN[C@H](CO)C(=O)O)cc2Cl)cccc1-c1ccc2nccnc2c1` [Example 1034, (R)-2-((5-chloro-2-((5-cyanopyridin-3-yl)methoxy)-4-((2-methyl-3-(quinoxalin-6-yl)benzyl)oxy)benzyl)amino)-3-hydroxypropanoic acid]: 1 to 10 nM.

In the case of `Cc1c(COc2cc(OCc3cncc(C#N)c3)c(CN[C@](C)(CO)C(=O)O)cc2Cl)cccc1-c1ccc2nccnc2c1` [Example 1035, (R)-2-((5-chloro-2-((5-cyanopyridin-3-yl)methoxy)-4-((2-methyl-3-(quinoxalin-6-yl)benzyl)oxy)benzyl)amino)-3-hydroxy-2-methylpropanoic acid], the IC50 fell in the range of 1 to 10 nM. The same measure for `Cc1c(COc2cc(OCc3cncc(C#N)c3)c(CN[C@](C)(CO)C(=O)O)cc2Cl)cccc1-c1ccc2oc(CCN3CC[C@@H](O)C3)nc2c1` [Example 1028, (R)-2-((5-chloro-2-((5-cyanopyridin-3-yl)methoxy)-4-((3-(2-(2-((R)-3-hydroxypyrrolidin-1-yl)ethyl)benzo[d]oxazol-5-yl)-2-methylbenzyl)oxy)benzyl)amino)-3-hydroxy-2-methylpropanoic acid]: 1 to 10 nM; for `Cc1c(OCCCN2CCCCC2)cccc1-c1ccnc(COc2cc(OCc3cncc(C#N)c3)c(CN3CCCC[C@H]3C(=O)O)cc2Cl)c1C` [Example 2014, (S)-1-(5-chloro-2-((5-cyanopyridin-3-yl)methoxy)-4-((3-methyl-4-(2-methyl-3-(3-(piperidin-1-yl)propoxy)phenyl)pyridin-2-yl)methoxy)benzyl)piperidine-2-carboxylic acid]: 11 to 150 nM; for `Cc1c(OCCCN2CC[C@@H](O)C2)cccc1-c1ccnc(COc2cc(OCc3cncc(C#N)c3)c(CN3CCCC[C@H]3C(=O)O)cc2Cl)c1C` [Example 2011, (S)-1-(5-chloro-2-((5-cyanopyridin-3-yl)methoxy)-4-((4-(3-(3-((R)-3-hydroxypyrrolidin-1-yl)propoxy)-2-methylphenyl)-3-methylpyridin-2-yl)methoxy)benzyl)piperidine-2-carboxylic acid]: 11 to 150 nM. The same measure for `Cc1c(COc2cc(OCc3cncc(C#N)c3)c(CNC(C)(C)C(=O)O)cc2Cl)cccc1-c1ccc2occc2c1` [Example 1015, 2-((4-((3-(benzofuran-5-yl)-2-methylbenzyl)oxy)-5-chloro-2-((5-cyanopyridin-3-yl)methoxy)benzyl)amino)-2-methylpropanoic acid]: 11 to 150 nM; for `Cc1c(COc2cc(OCc3cncc(C#N)c3)c(CN[C@](C)(CO)C(=O)O)cc2Cl)cccc1-c1ccc2cccnc2c1` [Example 1001, (R)-2-((5-chloro-2-((5-cyanopyridin-3-yl)methoxy)-4-((2-methyl-3-(quinolin-7-yl)benzyl)oxy)benzyl)amino)-3-hydroxy-2-methylpropanoic acid]: 11 to 150 nM. Under `Cc1nn(CCCCN2CC[C@H](O)C2)c(C)c1-c1cccc(COc2cc(OCc3cncc(C#N)c3)c(CN[C@](C)(CO)C(=O)O)cc2Cl)c1C` [Example 2003, (R)-2-((5-chloro-2-((5-cyanopyridin-3-yl)methoxy)-4-((3-(1-(4-((S)-3-hydroxypyrrolidin-1-yl)butyl)-3,5-dimethyl-1H-pyrazol-4-yl)-2-methylbenzyl)oxy)benzyl)amino)-3-hydroxy-2-methylpropanoic acid] stands 151 to 10000 nM.

The term IC50 denotes the midpoint of a concentration-inhibition curve.
